One assay concerns U937 cells. Kind of assay: Cellular assay in U937 cells: activity of RIPK1 inhibitors on TNFα/zVAD.fmk-induced cell death (necroptosis), CellTiter 96 AQueous (MTS) readout. It counts as cell-based. The note with it: Homo sapiens, U-937. An excerpt:
Upon TNF-Receptor I ligation, Ser/Thr kinase RIPK1 is recruited to a transient receptor complex 1. Upon modification of RIPK1 which promotes activation of RIPK1, complex IIb can form, that involves recruitment of RIPK3 and MLKL (mixed lineage-kinase domain-like protein) which then translocates from the cytosol to the plasma membrane to execute cell death (Cai, Z. et al, Nat. Cell Biol. (2014) 16:55-65).
Cell death was quantified in 96 well plates by determination of the amount of live cell using a CellTiter 96 AQueous reagent (Promega), a calorimetric method to measure the number of live cells by reducing tetrazolium compound [3-(4,5-dimethylthiazol-2-yl)-5-(3-carboxymethoxyphenyl)-2-(4-sulfophenyl)-2H-tetrazolium, inner salt; MTS] into formazan. Absorbance of formazan was read at 490 nm. The inhibitory activity of the test compound was quantified in a concentration response curve (CRC) experiment.
Compounds were obtained as 10 mM stock solutions and were diluted 1 to 10 volumes with DMSO to yield a 1 mM solution. From this solution 2 μl were diluted with 998 μl growth medium. 100 μl of 2 μM compound solution was further diluted sequentially with a dilution factor of 2.5 by adding 150 μl growth medium. A total of 10 concentrations were tested ranging from 10 μM to 0.26 nM or from 1 μM to 0.07 nM.
U937 cells were cultured in RPMI1640 Glutamax and 10% heat inactivated FBS. 50 μl cell suspension containing 1×10^6 cells/ml supplemented with 50 μM zVAD.fmk (Benzyloxycarbonyl-Val-Ala-Asp (OMe) fluoromethylketone) and 100 ng/ml recombinant human TNF[…] were dispensed in each well of a 96-well plate. 50 μl of compound dilutions (described in Cellular assay in U937 cells) were added and the cell suspension incubated overnight (18 to 24 hrs) at 37° C., 5% CO2 in a humidified atmosphere (95% rH). High (no compound) and low control (no TNF[…], zVAD.fmk) were tested with 7 replicates; all compound concentrations were tested in duplicates on each experimental plate.
CellTiter 96 Aqueous reagent was mixed (100 μl PMS (phenazine methosulfate) solution/2 ml MTS (3-(4,5-[…])-5-(3-carboxymethoxyphenyl)-2-(4-sulfophenyl)-2H-tetrazolium, inner salt) solution) and 20 μl were added per well. After 4 hrs incubation at 37° C. (5% CO2 95% rH) optical density was measured at 490 nm on a microplate reader (Tecan Infinite M1000).
The % inhibition is expressed as percentage of the maximal inhibition value obtained in the absence of TNFα/zVAD.fmc.

Assay [1] concerns the target T1, hRIPK1 (aa 1-375) fusion protein (Homo sapiens, UniProt Q13546).
T1 construct: hRIPK1 (aa 1-375) fusion protein
T1 sequence (Q13546 1-375): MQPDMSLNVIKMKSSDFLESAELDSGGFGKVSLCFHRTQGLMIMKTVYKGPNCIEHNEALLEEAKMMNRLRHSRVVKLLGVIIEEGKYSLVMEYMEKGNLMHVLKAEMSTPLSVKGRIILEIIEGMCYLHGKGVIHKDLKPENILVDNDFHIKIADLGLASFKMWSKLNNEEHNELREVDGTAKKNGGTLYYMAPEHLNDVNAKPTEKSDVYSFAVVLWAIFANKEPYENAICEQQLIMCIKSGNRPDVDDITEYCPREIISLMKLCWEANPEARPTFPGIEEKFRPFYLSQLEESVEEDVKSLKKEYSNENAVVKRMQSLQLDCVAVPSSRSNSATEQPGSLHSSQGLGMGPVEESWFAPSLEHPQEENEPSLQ
Kind of assay: ADP-Glo kinase assay: catalytic activity of RIPK1 (autophosphorylation, conversion of ATP to ADP). It counts as biochemical. Here is the method:
The catalytic activity of RIPK1 was measured by monitoring the conversion of Adenosine triphosphate (ATP) to Adenosine diphosphate (ADP) due to autophosphorylation using an ADP-Glo kinase kit (Promega, catalog no. V9104).
In detail, 2 μl recombinantly produced hRIPK1 (aa 1-375) fusion protein (end concentration 3.6 μg/ml) and 2 μl compound (end concentration 33300-1.69 nM; DMSO end concentration 1%) were incubated for 30 minutes at room temperature and then 2 μl ATP (ADP Glo kit, end concentration 50 μM) were added. After another 240 minutes incubation at room temperature, 5 μl Promega ADP-Glo reagent I was added to quench the reaction and deplete unconsumed ATP. After an incubation period of 30 minutes, 10 μl Promega ADP-Glo detection reagent II was added resulting in conversion of ADP to ATP, which generates a light-reaction between luciferase and luciferin. Luminescence was quantified after 30 minutes with a Pherastar FS (BMG LABTECH, Ortenberg).
The adjustment was obtained by nonlinear regression using the Levenberg Marquardt algorithm.
For orientation: ADP-Glo first removes unused ATP, then detects ADP through luciferase.

Molecules are shown by their SMILES.

In general, IC50 refers to the concentration that gives 50% inhibition. Low values mean greater potency, high ones weaker potency. Regarding `Cc1ncc(C[C@H]2CC[C@H](C(=O)N3OCC[C@H]3c3cc(F)c(C)c(C#N)c3)CC2)cc1C#N` [compound 286, trans-5-[[4-[(3S)-3-(3-cyano-5-fluoro-4-methyl-phenyl)isoxazolidine-2-carbonyl]cyclohexyl]methyl]-2-methyl-pyridine-3-carbonitrile], the IC50 (with U937 cells; in assay [1]) was 1 nM in each case.
As for `N#Cc1cncc([C@@H]2CCON2C(=O)[C@H]2CC[C@H](Cn3ccc4ncc(C#N)cc43)CC2)c1` [compound 108, trans-1-((4-((S)-3-(5-cyanopyridin-3-yl)isoxazolidine-2-carbonyl)cyclohexyl)methyl)-1H-pyrrolo[3,2-b]pyridine-6-carbonitrile], the 50% inhibitory concentration (IC50) came out at 18 nM with U937 cells and 27 nM in assay [1].
On the same counts, the results for `O=C([C@H]1CC[C@H](Cn2cnc3cc(F)ccc32)CC1)N1OCC[C@H]1c1cc(F)cc(F)c1` [compound 49, trans-((S)-3-(3,5-difluorophenyl)isoxazolidin-2-yl)(4-((5-fluoro-1H-benzo[d]imidazol-1-yl)methyl)cyclohexyl)methanone] are 8 nM and 21 nM.
The corresponding values for `N#Cc1cc(F)cc([C@@H]2CCON2C(=O)[C@H]2CC[C@H](Cn3ccc4ncccc43)CC2)c1` [compound 14, trans-3-((S)-2-(4-((1H-pyrrolo[3,2-b]pyridin-1-yl)methyl)cyclohexane-1-carbonyl)isoxazolidin-3-yl)-5-fluorobenzonitrile] are 3 nM and 50 nM.
On the same counts, the results for `Cc1ccc(C[C@H]2CC[C@H](C(=O)N3OCC[C@H]3c3cc(F)cc(F)c3)CC2)nn1` [compound 304, trans-[(3S)-3-(3,5-difluorophenyl)isoxazolidin-2-yl]-[4-[(6-methylpyridazin-3-yl)methyl]cyclohexyl]methanone] are 33 nM and 23 nM.
Consider `Cn1nccc1C[C@H]1CC[C@H](C(=O)N2OCC[C@H]2c2cnccn2)CC1` [compound 238, trans-[4-[(2-methylpyrazol-3-yl)methyl]cyclohexyl]-[(3S)-3-pyrazin-2-ylisoxazolidin-2-yl]methanone], for which the IC50 amounted to 257 nM with U937 cells and 41 nM in assay [1].
For `Cc1cn(C[C@H]2CC[C@H](C(=O)N3OCC[C@H]3c3cc(F)cc(F)c3)CC2)c2cc(C(N)=O)ccc12` [compound 111, trans-1-((4-((S)-3-(3,5-difluorophenyl)isoxazolidine-2-carbonyl)cyclohexyl)methyl)-3-methyl-1H-indole-6-carboxamide], the IC50 in the assay with U937 cells turned out to be 10 nM; in assay [1], 27 nM.
Consider `Cc1cnc([C@@H]2CCON2C(=O)[C@H]2CC[C@H](Cc3cc(C)ncc3C)CC2)cn1` [compound 339, trans-[4-[(2,5-dimethylpyridin-4-yl)methyl]cyclohexyl]-[(3S)-3-(5-methylpyrazin-2-yl)-1,2-oxazolidin-2-yl]methanone], for which the figures for the IC50 (with U937 cells; in assay [1]) were 16 nM and 25 nM, respectively.
For the compound `O=C1NCc2ccc(C[C@H]3CC[C@H](C(=O)N4OCC[C@H]4c4cc(F)cc(F)c4)CC3)cc21` [compound 156, trans-6-[[4-[(3S)-3-(3,5-difluorophenyl)isoxazolidine-2-carbonyl]cyclohexyl]methyl]isoindolin-1-one], the IC50 in the assay on U937 cells turned out to be 6 nM; in assay [1], 16 nM.
Consider `N#Cc1cc(F)cc([C@@H]2CCON2C(=O)[C@H]2CC[C@H](Cn3ncc4cc(C(N)=O)ccc43)CC2)c1` [compound 72, trans-1-((4-((S)-3-(3-cyano-5-fluorophenyl)isoxazolidine-2-carbonyl)cyclohexyl)methyl)-1H-indazole-5-carboxamide], for which the IC50 was found to be 10 nM in the assay with U937 cells and 30 nM in assay [1].
The corresponding values for `CNC(=O)c1cc(F)cc(C[C@H]2CC[C@H](C(=O)N3OCC[C@H]3c3cncc(F)c3)CC2)c1` [compound 160, trans-3-fluoro-5-[[4-[(3S)-3-(5-fluoro-3-pyridyl)isoxazolidine-2-carbonyl]cyclohexyl]methyl]-N-methyl-benzamide] are 11 nM and 6 nM.
Consider `CNC(=O)c1ccc(F)c(C[C@H]2CC[C@H](C(=O)N3OCC[C@H]3c3cc(F)cc(F)c3)CC2)c1` [compound 174, trans-3-[[4-[(3S)-3-(3,5-difluorophenyl)isoxazolidine-2-carbonyl]cyclohexyl]methyl]-4-fluoro-N-methyl-benzamide], for which the IC50 worked out at 4 nM in the assay on U937 cells and 19 nM in assay [1].
The corresponding values for `O=C([C@H]1CC[C@H](Cn2cnc3cc(F)ccc32)CC1)N1OCC[C@H]1c1cnccn1` [compound 92, trans-(4-((5-fluoro-1H-benzo[d]imidazol-1-yl)methyl)cyclohexyl)((S)-3-(pyrazin-2-yl)isoxazolidin-2-yl)methanone] are 132 nM and 75 nM.
Consider `Cc1nc2cc(C[C@H]3CC[C@H](C(=O)N4OCC[C@H]4c4cccc(C#N)c4)CC3)ccn2n1` [compound 1, trans-3-[(3S)-2-[4-[(2-methyl-[1,2,4]triazolo[1,5-a]pyridin-7-yl)methyl]cyclohexanecarbonyl]isoxazolidin-3-yl]benzonitrile], for which the IC50 came out at 29 nM with U937 cells and 21 nM in assay [1].
On the same counts, the results for `Cc1ccc([C@@H]2CCON2C(=O)C23CCC(Cc4ccc(C)c(C(N)=O)c4)(CC2)C3)cn1` [compound 271, 2-methyl-5-[[4-[(3S)-3-(6-methyl-3-pyridyl)isoxazolidine-2-carbonyl]norbornan-1-yl]methyl]benzamide] are 605 nM and 97 nM.
For the compound `N#Cc1cc(F)cc([C@@H]2CCON2C(=O)[C@H]2CC[C@H](Cc3ccc(F)c(C#N)c3)CC2)c1` [compound 244, trans-5-[[4-[(3S)-3-(3-cyano-5-fluoro-phenyl)isoxazolidine-2-carbonyl]cyclohexyl]methyl]-2-fluoro-benzonitrile], in assay [1], the IC50 turned out to be 20 nM.
On the same count and under the same terms, then `COc1cc(CC2CCC(C(=O)N3OCC[C@H]3c3cnccn3)CC2)cn2nc(C)nc12` (stereo partly drawn) [compound 314, [4-[(8-methoxy-2-methyl-[1,2,4]triazolo[1,5-a]pyridin-6-yl)methyl]cyclohexyl]-[(3S)-3-pyrazin-2-yl-1,2-oxazolidin-2-yl]methanone], with 35 nM.
Same read-out and setting: then `COc1cc(C[C@H]2CC[C@H](C(=O)N3OCC[C@H]3c3csc(C)n3)CC2)cn2nc(C)nc12` [compound 367, trans-[4-(8-Methoxy-2-methyl-[1,2,4]triazolo[1,5-a]pyridin-6-ylmethyl)-cyclohexyl]-[(S)-3-(2-methyl-thiazol-4-yl)-isoxazolidin-2-yl]-methanone], with 94 nM.
The same measure, in the same setting: then `Cc1cnc([C@@H]2CCON2C(=O)[C@H]2CC[C@H](Cc3cnc4c(C)nn(C)c4c3)CC2)cn1` [compound 410, [4-[(1,3-dimethylpyrazolo[4,3-b]pyridin-6-yl)methyl]cyclohexyl]-[(3S)-3-(5-methylpyrazin-2-yl)-1,2-oxazolidin-2-yl]methanone], with 80 nM.

Values taken from US20260158009A1 (GENZYME CORPORATION, priority 2023, published 2026).
